In patent US20140309295A1, “ANTIEPILEPTIC, HYPOCHOLESTEROLEMIC AND NEUROPROTECTIVE COMPOUND” (NEURON BIOPHARMA, S.A., priority 2009, published 2014):

How the values were obtained:
[1] = tested on: zebrafish embryo; experiment: Biosafety in zebrafish embryo (OECD C15, semi-static, 9 days); format: in vivo, Danio rerio
Experimental: The fertilized eggs were obtained by natural mating of the zebrafish (Danio rerio, AB strain). A total of 8-10 pairs were used for each cross and a total of 200-250 eggs were generated on average per pair.
To assure exposure in the earliest stages of development, the eggs were quickly transferred (a minimum of 50 per condition) to another Petri dish with solutions of the compounds to be tested. […] Each experiment was performed in triplicate.
The studies were conducted in a total of 9 days post-fertilization, in which the treatment was renewed every day, thus conducting a semi-static assay.
The results at the end of the experiment allowed collecting the percentage of healthy larvae which reach the end of the experiment, defined as the number of live larvae and without symptoms of external physiopathological anomalies (morphological and/or behavioral), this being a parameter determining the biosafety of a substance under study and is complementary to the survival rates and to the LD50.
The anomalies recorded in the study are described below: • Intracranial thrombosis: a clot inside the blood vessel, in this case of any cerebral vessel. • Cardiac thrombosis: occurs in a cardiac vessel. • Cardiac edema (or hydrops): accumulation of fluid in the intercellular tissue space and also in the cavities of the organism. In the case of the heart, it causes the accumulation of fluid in the pericardial sac. • Malformation: a noticeable difference in the shape of the body or part of the body, or organ of the body (internal or external) compared with the average shape of the part in question.
The cardiac rhythm of the zebrafish embryos-larva was determined by means of visual analysis in stereomicroscopy, determining the heartbeat with the aid of a manual counter for a period of one minute.

[2] = in vitro; conditions: PAMPA, pH 7.4
[3] = tested on: FVB/NHan mice inoculated with kainate (KA); experiment: Neuronal death in the hippocampus of mice caused by kainate (hematoxylin-eosin); format: in vivo; conditions: 50 mg/kg i.p., 7 days
Experimental: All the animals included for the experimental process were 12-week old males of the FVB/NHan strain. The experiments were conducted strictly following the Guidance on the Operation of Animals (Scientific Procedures, Act. 1986). The animals had their respective quarantine period and were treated with maximum precaution to minimize possible contaminations for inoculations and handling. […]

[4] = tested on: Zucker rats; experiment: Hypolipidemic effect in genetically obese Zucker rats, oral 7 days; format: in vivo; conditions: 30 mg/kg oral
Experimental: All the animals included for the experimental process were 11 week-old male Zucker rats. The experiments were conducted strictly following the Guidance on the Operation of Animals (Scientific Procedures, Act. 1986). The animals had their respective quarantine period and were treated with maximum precaution to minimize possible contaminations for inoculations and handling.
After a conditioning to the diet, 30 mg/kg of NST0021 or NST0037 were orally administered to the […] at the same time (15.00 to 18.00 h) for 7 consecutive days, using in both cases 0.5% carboxy methylcellulose in water as a vehicle. The control group received this same vehicle. Before starting the treatments and at 7 days therefrom, blood was extracted by lingual puncture under anesthesia after fasting for 16 hours. The plasma was obtained from said blood, in which the total cholesterol, HDL-c, LDL-c, VLDL-c, and triglyceride (TG) levels were evaluated by enzymatic and spectrophotometric techniques. In order to check if the effect at the lipid level involved an alteration of the oxidative stress, the redox state in the plasmas obtained was furthermore evaluated by means of the TEAC (Trolox Antioxidant Capacity Assay) technique. This technique determines the antioxidant capacity in vitro, giving an idea of the redox state of the sample analyzed by means of the absorbance capacity by electron transfer. The different components of the reaction, myoglobin, ABTS (2,2-azino-bis-(3-ethylbenzthiazoline-sulfonic acid) and hydrogen peroxide were added to the plasmas diluted 1/10 in PBS (10 μL) in a 96-well plate. After 3 minutes of incubation, the absorbance was measured at 405 nm (with a reference of 600 nm).

CCC(CC)C(=O)O[C@H]1C[C@@H](C)C=C2C=C[C@H](C)[C@H](CC[C@@H]3C[C@@H](O)CC(=O)O3)[C@H]21 [NST0037, (1S,2S,6R,8S,8aR)-1,2,6,7,8,8a-hexahydro-3,7-dimethyl-8-[2-[(2R,4R)-tetrahydro-4-hydroxy-6-oxo-2H-pyran-2-yl]ethyl]-1-naphthalenyl-2-ethyl-butyrate]
percentage of larvae with malformations or anomalous appearance ([1]; 0.2 mg/L): did not show significant toxicological effects | percentage of healthy larvae at the end of the experiment ([1]; 0.06 and 0.2 mg/L, 9 days): more healthy larvae reaching the end of the experiment | LD50 ([1]; first days post-treatment (up to day 2)): above the maximum dose evaluated | survival rate of embryos-larvae ([1]; high dose (2 mg/L, FIG. 24)): caused the mortality of all the embryos of the assay | reduction of the cardiac rhythm vs controls ([1]; increasing doses up to 2 mg/L, 72 hours post-treatment): statistically significant only at the dose of 2 mg/L | survival rate of embryos-larvae vs controls ([1]; lower dose (FIG. 25: NST0037 0.2 mg/L)): did not cause a statistically significant reduction of the survival rate | Papp at 18 h, 100 μM [2]: 3.1 ×10⁻⁶ cm/s | neuronal death in hippocampal CA1 and CA2 regions ([3]; NST0037+KA+NST0037 regimen, KA 25 mg/Kg): completely protected against neuronal death | neuronal death in hippocampal CA1 and CA2 regions ([3]; PBS+KA+NST0037 regimen (treatment after KA)): qualitatively reduced neuronal death and damage | HDL [4]: increase of HDL | oxidative stress (redox state in plasma, TEAC) [4]: drastic reduction | plasma triglyceride levels [4]: reduced the plasma triglyceride levels | plasma LDL levels ([4]; male Zucker rats): equally reducing the plasma LDL levels
